The source of these data is US12279618B2, “Use of dihydroporphin derived from chlorophyll as plant growth regulator” (Anqing Better Bioengineering Co., Ltd, priority 2019, dated 2025).

Format in all cases: in vivo
One assay deals with corn seeds. Nature of the assay: Corn seed germination experiment (seed soaking method, NYT 2061.1-2011). The source says: Test Method: Ministerial Standard NYT 2061.1-2011, Seed Soaking Method
Test samples: crude chlorin, and dihydroporphin monomers including chlorin fG, chlorin e6, pheophorbide, pyropheophorbide, chlorin e4, purpurin-7, purpurin-18, chlorin p6, 15-formyl rhodochlorin, 15-oxymethyl rhodochlorin, 15-oxymethyl rhodochlorin lactone A, 15-hydroxymethyl rhodochlorin, and 15-hydroxymethyl rhodochlorin lactone B, and pure water and iron chlorin e6 (China Pesticide Registration Certificate Number: PD20190031) were used as blank and positive control.
10 mg of each sample was weighed and put into a 10 ml volumetric flask, dissolved with DMSO, and diluted to volume after being dissolved completely. 1 ml of each diluted monomer solution was put into a 50-1000 ml volumetric flask, added with water, blended and diluted to volume so as to prepare a solution with a concentration of 2 ppm, 0.2 ppm, or 0.02 ppm.
The method was substantially the same as that in Example 2, except that the test samples were monomer chlorin e6 and control monomer chlorin e6 iron (III), both at a concentration of 0.02 ppm and the test seeds were corn, soybean, rice and wheat seeds. The preparation method of the control monomer was conducted by referring to CN102273467B.

A further assay relates to wheat seeds. The assay is described as follows: Wheat seed germination experiment (seed soaking method). The protocol:
(§1) Test Method: Ministerial Standard NYT 2061.1-2011, Seed Soaking Method 10 mg of each sample was weighed and put into a 10 ml volumetric flask, dissolved with DMSO, and diluted to volume after being dissolved completely. 1 ml of each diluted monomer solution was put into a 50-1000 ml volumetric flask, added with water, blended and diluted to volume so as to prepare a solution with a concentration of 2 ppm, 0.2 ppm, or 0.02 ppm. The method was substantially the same as that in Example 2 except that wheat seeds were used as the crop seeds. The method was substantially the same as that in Example 2, except that the test samples were monomer chlorin e6 and control monomer chlorin e6 iron (III), both at a concentration of 0.02 ppm and the test seeds were corn, soybean, rice and wheat seeds. The preparation method of the control monomer was conducted by referring to CN102273467B.

In a further assay the test system is soybean seeds. The assay is described as follows: Soybean seed germination experiment (seed soaking method). On the procedure:
Test Method: Ministerial Standard NYT 2061.1-2011, Seed Soaking Method 10 mg of each sample was weighed and put into a 10 ml volumetric flask, dissolved with DMSO, and diluted to volume after being dissolved completely. 1 ml of each diluted monomer solution was put into a 50-1000 ml volumetric flask, added with water, blended and diluted to volume so as to prepare a solution with a concentration of 2 ppm, 0.2 ppm, or 0.02 ppm. The method was substantially the same as that in Example 1 except that soybean seeds were used as the crop seeds, and the samples were crude chlorin, pyropheophorbide, chlorin f, chlorin e6, chlorin e4, purpurin-18, 15-oxymethyl rhodochlorin lactone, and 15-hydroxymethyl rhodochlorin lactone. The method was substantially the same as that in Example 2, except that the test samples were monomer chlorin e6 and control monomer chlorin e6 iron (III), both at a concentration of 0.02 ppm and the test seeds were corn, soybean, rice and wheat seeds. The preparation method of the control monomer was conducted by referring to CN102273467B.

Another assay concerns rice seeds. Nature of the assay: Rice seed germination experiment (seed soaking method). On the procedure: as §1, with “that rice” for “that wheat”
[1] abbreviates: 0.02 ppm sample solution, seed soaking.
The mark [2] stands for this setting: 0.2 ppm sample solution, seed soaking.
[3] abbreviates: 2 ppm sample solution, seed soaking.
Where [4] appears, read: soybean seeds, 0.2 ppm sample solution.
Setting [5] is: comparison of the monomers, 0.02 ppm.
Setting [6] is: comparison of the monomers, soy bean seeds, 0.02 ppm.
Setting [7] is: soybean seeds, 0.02 ppm sample solution.
Where [8] appears, read: soybean seeds, 2 ppm sample solution.
Where [9] appears, read: comparison of the monomers, 0.02 ppm, listed as chlorin e6.

As for 15-oxymethyl rhodochlorin, the values for the Germination rate % in the assay with corn seeds (setting [1]), in the assay with corn seeds (setting [2]) and with corn seeds (setting [3]) were 56%, 52% and 52%, respectively.
As for `C=Cc1c(C)c2cc3nc(c4c5[nH]c(cc6nc(cc1[nH]2)C(C)=C6CC)c(C)c5C(=O)OC4)C(CCC(=O)O)C3C` (stereo not drawn) [15-hydroxymethyl rhodochlorin lactone], the Germination rate % came out at 86% in the assay with wheat seeds (0.02 ppm sample solution); 96% in the assay with wheat seeds (0.2 ppm sample solution); 92% with wheat seeds (2 ppm sample solution); 60% in the assay with corn seeds (setting [1]); 54% in the assay with corn seeds (setting [2]); 48% in the assay on corn seeds (setting [3]). In addition, the Germination rate % was 60% with soybean seeds (setting [4]), 72% in the assay with rice seeds (0.02 ppm sample solution), 74% with rice seeds (0.2 ppm sample solution) and 68% in the assay with rice seeds (2 ppm sample solution).
Consider “chlorin e6 iron (III) [reference compound]”, for which the Germination rate % with wheat seeds (setting [5]) came out at 92%; in the assay on corn seeds (setting [5]), 46%; in the assay on soybean seeds (setting [6]), 60%; in the assay with rice seeds (setting [5]) it was 58%.
Turning to `C=Cc1c(C)c2cc3nc(c(C(=O)O)c4[nH]c(cc5nc(cc1[nH]2)C(C)=C5CC)c(C)c4C(=O)O)[C@@H](CCC(=O)O)[C@@H]3C` [Chlorin p6, chlorin p6], the Germination rate % with corn seeds (setting [1]) was 49%; in the assay on corn seeds (setting [2]) it was 55%; in the assay on corn seeds (setting [3]) it was 52%.
As for `C=Cc1c(C)c2cc3nc(c(C=O)c4[nH]c(cc5nc(cc1[nH]2)C(C)=C5CC)c(C)c4C(=O)O)[C@@H](CCC(=O)O)[C@@H]3C` [15-formyl rhodochlorin], the Germination rate % was determined as 52% in the assay with corn seeds (setting [1]), 51% in the assay on corn seeds (setting [2]) and 54% in the assay on corn seeds (setting [3]).
As to 15-oxymethyl rhodochlorin lactone, the Germination rate % with wheat seeds (0.2 ppm sample solution) turned out to be 94%; with wheat seeds (2 ppm sample solution), 82%; in the assay on corn seeds (setting [1]), 54%; in the assay with corn seeds (setting [2]), 66%; in the assay on corn seeds (setting [3]), 58%; in the assay on soybean seeds (setting [7]), 58%. The Germination rate % is on record as 58% in the assay on soybean seeds (setting [4]), 60% with soybean seeds (setting [8]), 72% with rice seeds (0.02 ppm sample solution) and 70% with rice seeds (2 ppm sample solution).
As for `C=Cc1c(C)c2cc3nc(c4c5[nH]c(cc6nc(cc1[nH]2)C(C)=C6CC)c(C)c5C(=O)OC4=O)[C@@H](CCC(=O)O)[C@@H]3C` [Purpurin-18, purpurin-18], the Germination rate % stood at 97% in the assay on wheat seeds (0.02 ppm sample solution); 97% in the assay on wheat seeds (0.2 ppm sample solution); 95% in the assay with wheat seeds (2 ppm sample solution); 55% with corn seeds (setting [1]); 58% in the assay with corn seeds (setting [2]); 53% with corn seeds (setting [3]). Further, the Germination rate % in the assay with soybean seeds (setting [7]) amounted to 66%; with soybean seeds (setting [4]), 65%; in the assay with soybean seeds (setting [8]) it was 67%; in the assay on rice seeds (0.02 ppm sample solution), 77%; in the assay with rice seeds (0.2 ppm sample solution), 78%; in the assay with rice seeds (2 ppm sample solution) it was 76%.
As to `C=Cc1c(C)c2cc3nc(c4c5[nH]c(cc6nc(cc1[nH]2)C(C)=C6CC)c(C)c5C(=O)C4)[C@@H](CCC(=O)O)[C@@H]3C` [Pyropheophorbide, pyropheophorbide], the Germination rate % was found to be 94% in the assay on wheat seeds (0.02 ppm sample solution); 92% in the assay on wheat seeds (0.2 ppm sample solution); 93% in the assay with wheat seeds (2 ppm sample solution); 58% with corn seeds (setting [1]); 56% with corn seeds (setting [2]); 55% in the assay on corn seeds (setting [3]). The Germination rate % in the assay with soybean seeds (setting [7]) was found to be 61%; in the assay with soybean seeds (setting [4]), 67%; with soybean seeds (setting [8]), 65%; in the assay with rice seeds (0.02 ppm sample solution), 73%; with rice seeds (0.2 ppm sample solution), 74%; with rice seeds (2 ppm sample solution), 72%.
With `C=Cc1c(C)c2cc3nc(c4c5[nH]c(cc6nc(cc1[nH]2)C(C)=C6CC)c(C)c5C(=O)[C@@H]4C(=O)OC)[C@@H](CCC(=O)O)[C@@H]3C` [Pheophorbide, pheophorbide], the Germination rate % was 57% in the assay with corn seeds (setting [1]), 55% in the assay on corn seeds (setting [2]) and 56% in the assay with corn seeds (setting [3]).
Consider `C=Cc1c(C)c2cc3nc(c(CC(=O)O)c4[nH]c(cc5nc(cc1[nH]2)C(C)=C5CC)c(C)c4C(=O)O)[C@@H](CCC(=O)O)[C@@H]3C` [Chlorin e6, chlorin e6], for which the Germination rate % in the assay with wheat seeds (0.02 ppm sample solution) was 94%; in the assay on wheat seeds (0.02 ppm sample solution, listed as chlorin e6), “best germination effect”; in the assay on wheat seeds (0.2 ppm sample solution), 96%; with wheat seeds (2 ppm sample solution) it was 90%; with wheat seeds (setting [5]), 94%; in the assay with wheat seeds (setting [9]), “all better than those for the iron chelate monomer chlorin e6 iron (III)”. The Germination rate % in the assay with corn seeds (setting [1]) was 58%; with corn seeds (setting [2]) it was 42%; in the assay with corn seeds (setting [3]), 46%; with corn seeds (setting [5]) it was 58%; in the assay with corn seeds (setting [9]) it was “all better than those for the iron chelate monomer chlorin e6 iron (III)”; in the assay on soybean seeds (setting [6]) it was 66%. Further, the Germination rate % result is on record as “all better than those for the iron chelate monomer chlorin e6 iron (III)” in the assay on soybean seeds (comparison of the monomers, soy bean seeds, 0.02 ppm, listed as chlorin e6); 60% in the assay on soybean seeds (setting [7]); 59% in the assay with soybean seeds (setting [4]); 60% with soybean seeds (setting [8]); 70% with rice seeds (0.02 ppm sample solution); 74% with rice seeds (0.2 ppm sample solution). The Germination rate % in the assay with rice seeds (2 ppm sample solution) was 68%; in the assay on rice seeds (setting [5]), 76%; in the assay with rice seeds (setting [9]), “all better than those for the iron chelate monomer chlorin e6 iron (III)”.
Regarding `C=Cc1c(C)c2cc3nc(c(C)c4[nH]c(cc5nc(cc1[nH]2)C(C)=C5CC)c(C)c4C(=O)O)[C@@H](CCC(=O)O)[C@@H]3C` [Chlorin e4, chlorin e4], the Germination rate % stood at 93% in the assay on wheat seeds (0.02 ppm sample solution); 98% in the assay on wheat seeds (0.2 ppm sample solution); 97% in the assay with wheat seeds (2 ppm sample solution); 57% in the assay with corn seeds (setting [1]); 55% with corn seeds (setting [2]); 48% in the assay with corn seeds (setting [3]). Besides, the Germination rate % in the assay on soybean seeds (setting [7]) is given as 67%; in the assay on soybean seeds (setting [4]), 66%; in the assay with soybean seeds (setting [8]), 65%; with rice seeds (0.02 ppm sample solution), 71%; in the assay with rice seeds (0.2 ppm sample solution), 76%; in the assay with rice seeds (2 ppm sample solution), 77%.
As for purpurin-7, the Germination rate % worked out at 56% in the assay with corn seeds (setting [1]), 57% in the assay on corn seeds (setting [2]) and 53% in the assay with corn seeds (setting [3]).
The matching figures for `C=Cc1c(C)c2cc3nc(c(CO)c4[nH]c(cc5nc(cc1[nH]2)C(C)=C5CC)c(C)c4C(=O)O)C(CCC(=O)O)C3C` (stereo not drawn) [15-hydroxymethyl rhodochlorin]: 58%, 59% and 55%.
